Test results taken from publication PMC10813319 (Biomedicines, 2024).

Tested on: PrP^C overexpression-induced cofilactin rods in rat hippocampal neurons

Question: Which “Rod formation induced by PrP^C overexpression, 4-day treatment” value does the source give for `C[C@H](O)[C@@H](N)C(=O)N[C@@H](C(=O)N[C@H](CC(N)=O)C(=O)N[C@H](Cc1ccc(O)cc1)C(=O)N[C@@H](C(=O)O)[C@H](C)O)[C@H](C)O` [RAP-103] here?
Answer: The value was “blocked”.

Question: What about the “Rod formation induced by PrP^C overexpression, treatment for last day only” value of the same compound?
Answer: Its value is “reversed”.
